Data on 43 compounds can be found in patent US10538520B2, “Benzamide and nicotinamide compounds and methods of using same” (OncoTartis Inc., priority 2013, dated 2020).

One assay concerns U-937. As to the kind of experiment: Cytotoxicity towards U-937 cell line. It counts as cell-based. Conditions: Homo sapiens. As for the experimental part: (§1) In various embodiments, the compounds of the disclosure are those in which show IC50 values in cytotoxicity experiments towards cells lines MV4-11 and U937 of >20 μM, 10-20 μM, 5-10 μM, 1-5 μM, or <1 μM.
(§2) The IC50 is divided into 5 categories: A<1 μM, B 1-5 μM, C 5-10 μM, D 10-20 μM, and E>20 μM.

The subject of the next assay is MV4-11. As to the kind of experiment: Cytotoxicity towards MV4-11 cell line. It counts as cell-based. Conditions: Homo sapiens. As for the experimental part:
as §1, §2

Each structure is given as a SMILES string.

One may read the IC50 as the concentration that gives 50% inhibition. Regarding `O=C(Nc1ccc(Cn2ccnc2)cc1)c1ccc(-n2cccn2)c(C#Cc2ccccc2)c1` [TT-02690], the results for the IC50 in the assay with U-937 and with MV4-11 were 10 to 20 µM and 5 to 10 µM, respectively.
For the compound `C#Cc1cc(C(=O)NCCCn2ccnc2)ccc1-n1cccn1` [TT-02752], the IC50 with U-937 fell in the range of 10 to 20 µM; in the assay with MV4-11 it was 5 to 10 µM.
As for `O=C(NCCCN1CCCC1=O)c1ccc(-n2cccn2)c(C#Cc2cccnc2)c1` [TT-02937], the IC50 in the assay with U-937 and in the assay with MV4-11 was above 20 µM each time.
`O=C(NCCCc1cn[nH]c1)c1ccc(-c2cc[n+]([O-])cc2)c(C#Cc2ccc(F)cc2)c1` [TT-03773]: the IC50 in the assay on U-937 and in the assay on MV4-11 was below 1 µM each time.
Take `NCc1ccc(C#Cc2cc(C(=O)NCCCc3cn[nH]c3)ccc2-n2cccn2)cc1` [TT-03334]: the IC50 in the assay on U-937 and in the assay with MV4-11 was below 1 µM each time.
Consider `O=C(NCCCc1cn[nH]c1)c1ccc(N2CCCC2)c(C#Cc2ccccc2)c1` [TT-03230], for which the IC50 with U-937 and with MV4-11 was below 1 µM throughout.
For the compound `CC1(C)CCCN(c2ccc(C(=O)NCCCc3cn[nH]c3)cc2C#Cc2ccc(F)cc2)C1` [TT-03676], the IC50 in the assay on U-937 and in the assay on MV4-11 was below 1 µM in each case.
In the case of `O=C(NCCCc1cn[nH]c1)c1ccc(Oc2ccccc2)c(C#Cc2ccccc2)c1` [TT-03233], the IC50 in the assay with U-937 and in the assay with MV4-11 was below 1 µM in each case.
On to `Cc1cc(CN(C)C(=O)c2ccc(-n3cccn3)c(C#Cc3ccccc3)c2)no1` [TT-02801], for which the IC50 lay in the range of 1 to 5 µM with U-937 and 10 to 20 µM with MV4-11.
On the same counts, the results for `O=C(NCCCN1CCOCC1)c1ccc(-n2cccn2)c(C#Cc2cccnc2)c1` [TT-02936] are above 20 µM and above 20 µM.
On the same counts, the results for `COc1ccc(C#Cc2cc(C(=O)NCCCc3cn[nH]c3)ccc2-n2cccn2)cc1` [TT-03306] are below 1 µM and below 1 µM.
For `Cc1ccnn1CCNC(=O)c1ccc(-n2cccn2)c(C#Cc2cccnc2)c1` [TT-02945], the IC50 in the assay on U-937 and with MV4-11 was above 20 µM throughout.
In the case of `Cc1ccn(CCNC(=O)c2ccc(-n3cccn3)c(C#Cc3ccccc3)c2)n1` [TT-02692], the IC50 was below 1 µM in the assay with U-937 and above 20 µM with MV4-11.
Turning to `COc1cccc(C#Cc2cc(C(=O)NCCCc3cn[nH]c3)ccc2-n2cccn2)c1` [TT-03308], the IC50 in the assay on U-937 and with MV4-11 was below 1 µM throughout.
On to `Cc1ccccc1C#Cc1cc(C(=O)NCCCc2cn[nH]c2)ccc1-n1cccn1` [TT-03326], for which the IC50 in the assay on U-937 and with MV4-11 was below 1 µM each time.
As to `O=C(NCCCn1ccnc1)c1ccc(-n2cccn2)c(C#Cc2cccnc2)c1` [TT-03264], the IC50 with U-937 and in the assay with MV4-11 was below 1 µM each time.
For `O=C(NCCCc1cn[nH]c1)c1ccc(-n2cccn2)c(C#Cc2cccc(O)c2)c1` [TT-03311], the IC50 with U-937 and in the assay on MV4-11 was below 1 µM in each case.
As to `Nc1cccc(C#Cc2cc(C(=O)NCCCc3cn[nH]c3)ccc2-n2cccn2)n1` [TT-03354], the IC50 in the assay with U-937 and with MV4-11 was below 1 µM each time.
With `O=C(NCCCc1cn[nH]c1)c1ccc(-n2cccn2)c(C#CC2(O)CCCCC2)c1` [TT-03351], the IC50 with U-937 and with MV4-11 was 5 to 10 µM in each case.
Turning to `O=C(NCCCc1cn[nH]c1)c1ccc(N2CCCCCC2)c(C#Cc2ccc(F)cc2)c1` [TT-03589], the IC50 with U-937 and in the assay with MV4-11 was below 1 µM throughout.
`CCc1nnc(NC(=O)c2ccc(-n3cccn3)c(C#Cc3cccnc3)c2)s1` [TT-02932]: the IC50 in the assay with U-937 and in the assay with MV4-11 was above 20 µM throughout.
Take `CN(C)c1ccc(C(=O)NCCCn2ccnc2)cc1C#Cc1ccccc1` [TT-03252]: the IC50 in the assay with U-937 and in the assay with MV4-11 was below 1 µM in each case.
With `C#Cc1cc(C(=O)NCCCc2cn[nH]c2)ccc1-n1cccn1` [TT-03337], the IC50 in the assay with U-937 was above 20 µM; in the assay with MV4-11, 10 to 20 µM.
On to `C[C@@H]1CN(c2ccc(C(=O)NC/C=C/c3cn[nH]c3)cc2C#Cc2ccc(F)cc2)C[C@H](C)O1` [TT-03718], for which the IC50 in the assay with U-937 and in the assay on MV4-11 was below 1 µM each time.
In the case of `C[C@@H]1CN(c2ncc(C(=O)NCCCc3cn[nH]c3)cc2C#Cc2ccc(F)cc2)C[C@H](C)O1` [TT-03750], the IC50 with U-937 and in the assay with MV4-11 was below 1 µM each time.
Consider `CC(C)(O)C#Cc1cc(C(=O)NCCCc2cn[nH]c2)ccc1-n1cccn1` [TT-03346], for which the half-maximal inhibitory concentration (IC50) in the assay with U-937 is above 20 µM; with MV4-11 it was 5 to 10 µM.
For `Cc1nccn1CCCNC(=O)c1ccc(N2CCN(CCOCCOCCOCCN)CC2)c(C#Cc2ccc(F)cc2)c1` [TT-03749] the same measures were 10 to 20 µM and 1 to 5 µM.
For `Cc1cc(C)n(CCNC(=O)c2ccc(-n3cccn3)c(C#Cc3ccccc3)c2)n1` [TT-02927] the same measures were 5 to 10 µM and 10 to 20 µM.
For `CN(C)c1cccc(C#Cc2cc(C(=O)NCCCc3cn[nH]c3)ccc2-n2cccn2)n1` [TT-03623] the same measures were below 1 µM and below 1 µM.
As to `O=C(NCCCc1cn[nH]c1)c1ccc(-n2cccn2)c(C#Cc2cccnc2)c1` [TT-03303], the IC50 with U-937 and in the assay on MV4-11 was below 1 µM throughout.
In the case of `O=C(NCCCc1cn[nH]c1)c1ccc(-c2cccnc2)c(C#Cc2ccccc2)c1` [TT-03245], the IC50 in the assay on U-937 and in the assay on MV4-11 was below 1 µM each time.
As for `O=C(NCCCn1ccnc1)c1ccc(-n2cccn2)c(C#Cc2ccccn2)c1` [TT-02695], the IC50 in the assay on U-937 and in the assay with MV4-11 was below 1 µM throughout.
On to `Cc1ccc(C(=O)NCCCn2ccnc2)cc1C#Cc1ccccc1` [TT-03196], for which the IC50 with U-937 and in the assay on MV4-11 was below 1 µM each time.
Take `Cc1nccn1-c1ccc(C(=O)NCCCc2cn[nH]c2)cc1C#Cc1ccc(F)cc1` [TT-03602]: the IC50 in the assay with U-937 and in the assay on MV4-11 was below 1 µM throughout.
Turning to `O=C(NCCCn1ccnc1)c1ccc(-n2cccn2)c(C#Cc2ccc(C(F)(F)F)cc2)c1` [TT-02747], the IC50 in the assay on U-937 lay within 5 to 10 µM; in the assay with MV4-11 it was 10 to 20 µM.
As to `Cn1cc(-c2ccc(C(=O)NCCCc3cn[nH]c3)cc2C#Cc2ccc(F)cc2)cn1` [TT-03585], the IC50 with U-937 and in the assay on MV4-11 was below 1 µM in each case.
Turning to `O=C(NCCCc1cn[nH]c1)c1ccc(N2CCC(O)CC2)c(C#Cc2ccc(F)cc2)c1` [TT-03587], the IC50 in the assay with U-937 and in the assay with MV4-11 was below 1 µM throughout.
`O=C(NCCCc1ccccn1)c1ccc(-n2cccn2)c(C#Cc2ccccc2)c1` [TT-02935]: the IC50 is 5 to 10 µM in the assay on U-937 and 10 to 20 µM in the assay with MV4-11.
On the same counts, the results for `O=C(NCCCn1ccnc1)c1ccc(-n2cccn2)c(C#Cc2ccccc2C(F)(F)F)c1` [TT-02751] are below 1 µM and below 1 µM.
On the same counts, the results for `Cc1nccn1CCCNC(=O)c1ccc(-n2cccn2)c(C#Cc2ccccc2)c1` [TT-02689] are 1 to 5 µM and 1 to 5 µM.
For `CC(C)(C)OC(=O)NCc1ccc(C#Cc2cc(C(=O)NCCCc3cn[nH]c3)ccc2-n2cccn2)cc1` [TT-03364], the IC50 in the assay with U-937 and in the assay with MV4-11 was 1 to 5 µM throughout.
`O=C(NCCc1cnccn1)c1ccc(-n2cccn2)c(C#Cc2ccccc2)c1` [TT-02943]: the IC50 was 1 to 5 µM in the assay on U-937 and 10 to 20 µM with MV4-11.
For `O=C(NCCCc1cn[nH]c1)c1ccc(-n2cccn2)c(C#Cc2ccccn2)c1` [TT-03355] the same measures were below 1 µM and below 1 µM.
